Laboratory results as given in US20180237441A1, “Chemical Compounds” (GlaxoSmithKline Intellectual Property (No.2) Limited, priority 2015, published 2018).

Target: T1, PERK (Homo sapiens, UniProt Q9NZJ5)
T1 sequence (Q9NZJ5 30-1116): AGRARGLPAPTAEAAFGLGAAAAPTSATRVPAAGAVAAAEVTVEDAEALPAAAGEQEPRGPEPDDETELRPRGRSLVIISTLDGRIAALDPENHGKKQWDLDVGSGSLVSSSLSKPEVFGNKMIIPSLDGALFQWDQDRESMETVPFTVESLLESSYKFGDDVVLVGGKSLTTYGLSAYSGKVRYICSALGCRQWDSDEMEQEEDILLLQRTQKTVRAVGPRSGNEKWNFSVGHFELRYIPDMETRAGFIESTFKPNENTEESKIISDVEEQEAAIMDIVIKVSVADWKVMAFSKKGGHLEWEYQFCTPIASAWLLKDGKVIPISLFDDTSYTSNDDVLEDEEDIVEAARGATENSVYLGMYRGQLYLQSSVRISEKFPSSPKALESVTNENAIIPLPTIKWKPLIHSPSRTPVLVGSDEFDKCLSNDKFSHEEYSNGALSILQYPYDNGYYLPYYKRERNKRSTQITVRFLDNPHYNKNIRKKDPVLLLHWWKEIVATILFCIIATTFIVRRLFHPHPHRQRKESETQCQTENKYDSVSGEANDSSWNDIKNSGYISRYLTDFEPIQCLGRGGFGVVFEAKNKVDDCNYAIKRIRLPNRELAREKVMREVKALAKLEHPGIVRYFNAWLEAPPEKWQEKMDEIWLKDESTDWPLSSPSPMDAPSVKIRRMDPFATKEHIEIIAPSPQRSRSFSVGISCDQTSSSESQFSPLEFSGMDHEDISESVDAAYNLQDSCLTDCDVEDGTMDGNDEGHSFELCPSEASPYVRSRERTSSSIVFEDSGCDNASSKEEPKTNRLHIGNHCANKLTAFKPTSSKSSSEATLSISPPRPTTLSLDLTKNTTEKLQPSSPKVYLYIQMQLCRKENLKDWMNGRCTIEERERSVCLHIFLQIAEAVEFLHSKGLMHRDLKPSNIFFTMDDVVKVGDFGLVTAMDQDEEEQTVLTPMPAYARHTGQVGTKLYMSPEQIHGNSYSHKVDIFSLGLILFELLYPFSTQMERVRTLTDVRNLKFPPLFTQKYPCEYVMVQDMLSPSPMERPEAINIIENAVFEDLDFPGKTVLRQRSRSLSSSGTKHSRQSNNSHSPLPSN
Assay: PERK enzyme assay (HTRF)
Assay type: biochemical
Conditions: 500 μM ATP; at least one experimental run; read-out: PERK Enzyme (500 μM ATP) IC50
In short: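 HTRF read-out after 2 h of EDTA-quenched reactions, detecting phospho-eIF2α with Eu/APC reagents, gave IC50 values. Reaction: 0.75 nM GST-PERK, 30–60 min compound pre-incubation (max 1% DMSO), then 60 min with 40 nM biotin-eIF2α and 500 μM ATP, HEPES pH 7.5 buffer.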

`Cn1cc(-c2ccc(N3CC(c4cc(F)ccc4F)N(Cc4ccccc4)C3=O)cc2F)c2c(N)ncnc21` (stereo not shown) [Example 20, 1-(4-(4-amino-7-methyl-7H-pyrrolo[2,3-d]pyrimidin-5-yl)-3-fluorophenyl)-3-benzyl-4-(2,5-difluorophenyl)imidazolidin-2-one] was tested. Which IC50 did it give?
The IC50 was 3640 nM.

Same assay, conditions: PERK Enzyme (500 μM ATP) IC50; at least one experimental run; read-out: PERK Activity

With `Cn1cc(-c2ccc(N3CC(c4cc(F)ccc4F)N(Cc4ccccc4)C3=O)cc2F)c2c(N)ncnc21` (stereo not shown) [Example 20, 1-(4-(4-amino-7-methyl-7H-pyrrolo[2,3-d]pyrimidin-5-yl)-3-fluorophenyl)-3-benzyl-4-(2,5-difluorophenyl)imidazolidin-2-one] as the compound, how does the IC50 read?
The IC50 was greater than 1000 nM.

How did the IC50 turn out when “1-(4-(4-amino-2,7-dimethyl-7H- pyrrolo[2,3-d]pyrimidin-5-yl)-3- fluorophenyl)-4-(2,4-difluorophenyl)- 3-trifluoroethyl)imidazolidin-2-one [Example 83]” was run?
Its IC50 is 100 to 1000 nM.

For `CN1C(=O)N(c2ccc(-c3cn(C)c4ncnc(N)c34)c(F)c2)CC1c1cc(Cl)ccc1F` (stereo not shown) [Example 53, 1-(4-(4-amino-7-methyl-7H-pyrrolo[2,3-d]pyrimidin-5-yl)-3-fluorophenyl)-4-(5-chloro-2-fluorophenyl)-3-methylimidazolidin-2-one], which IC50 is on record?
The IC50 was 100 to 1000 nM.

Which IC50 does the source give for `CN1C(=O)N(c2ccc(-c3cn(C)c4ncnc(N)c34)c(F)c2)CC1C1CCCCC1` (single isomer, unassigned) [Example 62, 1-(4-(4-amino-7-methyl-7H-pyrrolo[2,3-d]pyrimidin-5-yl)-3-fluorophenyl)-4-cyclohexyl-3-methylimidazolidin-2-one] here?
Its IC50 is less than 100 nM.

With `CN1C(=O)N(c2ccc(-c3cn(C)c4ncnc(N)c34)c(F)c2)CC1c1ccccn1` (stereo not shown) [Example 7, 1-(4-(4-amino-7-methyl-7H-pyrrolo[2,3-d]pyrimidin-5-yl)-3-fluorophenyl)-3-methyl-4-(pyridin-2-yl)imidazolidin-2-one] as the compound, how does the IC50 read?
The IC50 was less than 100 nM.

How did the IC50 turn out when `Cc1cc(N2CC(c3cc(F)cc(F)c3)N(C)C2=O)ccc1-c1cn(C)c2ncnc(N)c12` (stereo not shown) [Example 118, 1-(4-(4-amino-7-methyl-7H-pyrrolo[2,3-d]pyrimidin-5-yl)-3-methylphenyl)-4-(3,5-difluorophenyl)-3-methylimidazolidin-2-one] was run?
Its IC50 is less than 100 nM.

`CCn1cc(-c2ccc(N3CC(c4ccc(F)cc4F)N(C)C3=O)cc2F)c2c(N)nc(C)nc21` (stereo not shown) [Example 109, 1-(4-(4-amino-7-ethyl-2-methyl-7H-pyrrolo[2,3-d]pyrimidin-5-yl)-3-fluorophenyl)-4-(2,4-difluorophenyl)-3-methylimidazolidin-2-one] was tested. Which IC50 did it give?
Its IC50 is less than 100 nM.

With `CN1C(=O)N(c2ccc(-c3cn(C4CC4)c4ncnc(N)c34)c(F)c2)CC1c1cc(F)cc(F)c1` (stereo not shown) [Example 176, 1-(4-(4-amino-7-cyclopropyl-7H-pvrrolo[2,3-d]pyrimidin-5-yl)-3-fluorophenyl)-4-(3,5-difluorophenyl)-3-methylimidazolidin-2-one] as the compound, how does the IC50 read?
Its IC50 is less than 100 nM.

With `CN1C(=O)N(c2ccc(-c3cn(C)c4ncnc(N)c34)c(F)c2)CC1c1cc(C2CC2)ccc1F` (stereo not shown) [Example 49, 1-(4-(4-amino-7-methyl-7H-pyrrolo[2,3-d]pyrimidin-5-yl)-3-fluorophenyl)-4-(5-cyclopropyl-2-fluorophenyl)-3-methylimidazolidin-2-one] as the compound, how does the IC50 read?
Its IC50 is 100 to 1000 nM.

For `Cc1nc(N)c2c(-c3ccc(N4CC(C5CCCCC5)N(C)C4=O)cc3F)cn(C)c2n1` (single isomer, unassigned) [Example 61, 1-(4-(4-amino-2,7-dimethyl-7H-pyrrolo[2,3-d]pyrimidin-5-yl)-3-fluorophenyl)-4-cyclohexyl-3-methylimidazolidin-2-one], which IC50 is on record?
Its IC50 is 100 to 1000 nM.

For `CCN1C(=O)N(c2ccc(-c3cn(C)c4ncnc(N)c34)c(F)c2)CC1c1ccc(F)cc1F` (stereo not shown) [Example 23, 1-(4-(4-amino-7-methyl-7H-pyrrolo[2,3-d]pyrimidin-5-yl)-3-fluorophenyl)-4-(2,4-difluorophenyl)-3-ethylimidazolidin-2-one], which IC50 is on record?
Its IC50 is 100 to 1000 nM.

Which IC50 does the source give for `CCN1C(=O)N(c2ccc(-c3cn(C4CC4)c4ncnc(N)c34)c(F)c2)CC1c1cc(F)cc(F)c1` (single isomer, unassigned) [Example 173, 1-(4-(4-amino-7-cyclopropyl-7H-pyrrolo[2,3-d]pyrimidin-5-yl)-3-fluorophenyl)-4-(3,5-difluorophenyl)-3-ethylimidazolidin-2-one] here?
Its IC50 is less than 100 nM.
